These results are taken from paper PMC10589313 (Nature Communications, 2023).

Where “and” joins values, the source holds several entries; their conditions need not be identical. Equal entries are not always repeated. A value given as a limit tells only on which side of the number the result lay.

One experiment deals with T1, human wild-type H4R (Homo sapiens, UniProt Q9H3N8).
T1 construct: a mutant H4R (human, full-length, and untagged); expressed in transfected cells; host or cells: HEK293A
In words: TGFα shedding assay, wild-type H4R. The format is cell-based. As to the method: (§1) The mutants were prepared using the primers listed in Supplementary Table 2. […] The chimeric Gαq/i1 subunit comprises the Gαq backbone and Gαi1-derived six-amino acid C-terminus and couples with Gi-coupled H4R but induces a Gq-dependent TGFα shedding response. After culturing for 1 day and incubating at 37 °C in a 5% CO2 incubator, the transfected cells were harvested by trypsinization, neutralized with Dulbecco’s modified Eagle’s medium containing 10% fetal calf serum (FCS) and penicillin–streptomycin, washed once with Hank’s balanced salt solution (HBSS) containing 5 mM of HEPES (pH 7.4), and resuspended in 6 mL of the HEPES-containing HBSS. The cell suspension was seeded into a 96-well plate at a volume of […] per well (typically, 48 wells per transfected cells) and incubated for 30 min in the CO2 incubator. Test compounds (10×, diluted in 0.01% BSA and 5 mM of HEPES-containing HBSS, […] volume) were added to duplicate wells and incubated for 1 h. After centrifugation, the conditioned medium ([…]) was transferred to an empty 96-well plate. AP reaction solution [10 mM of p-nitrophenylphosphate (p-NPP), 120 mM of Tris–HCl (pH 9.5), 40 mM of NaCl, and 10 mM of MgCl2] was dispensed into the cell culture plates and plates containing conditioned media ([…]). Absorbance was measured at 405 nm before and after a 1-h incubation period at 25 °C using a microplate reader (iMark™ Microplate Absorbance Reader; BioRad). Ligand-induced AP-TGFα release was calculated as previously described. The vehicle-treated AP-TGFα release signal was set as a baseline unless otherwise specified. AP-TGFα release signals were fitted with a four-parameter sigmoidal concentration-response curve, from which EC50 and Emax values were obtained, using GraphPad Prism 9 software (GraphPad Prism). Negative values of logarithmically transformed EC50 values (pEC50) were used to calculate the mean and standard error of independent experiments.
(§2) All functional study data were analyzed using Prism 9 (GraphPad) and are presented as mean ± standard error of the mean (SEM) of three independent experiments. Statistical analyses were performed using Prism 9 (GraphPad) with one-way analysis of variance followed by Dunnett’s post-hoc test. Values with p < 0.05 are considered statistically significant.

Another experiment addresses T2, human H4R T99A mutant (Homo sapiens, UniProt Q9H3N8, T99A).
T2 construct: a mutant H4R (human, full-length, and untagged); expressed in transfected cells; host or cells: HEK293A
In words: TGFα shedding assay, H4R T99A mutant. Type of experiment: cell-based. As to the method:
as §1, §2

In a further experiment the target is T3, human H4R F344I mutant (Homo sapiens, UniProt Q9H3N8, F344I).
T3 construct: a mutant H4R (human, full-length, and untagged); expressed in transfected cells; host or cells: HEK293A
T3 sequence (Q9H3N8 whole entry F344I): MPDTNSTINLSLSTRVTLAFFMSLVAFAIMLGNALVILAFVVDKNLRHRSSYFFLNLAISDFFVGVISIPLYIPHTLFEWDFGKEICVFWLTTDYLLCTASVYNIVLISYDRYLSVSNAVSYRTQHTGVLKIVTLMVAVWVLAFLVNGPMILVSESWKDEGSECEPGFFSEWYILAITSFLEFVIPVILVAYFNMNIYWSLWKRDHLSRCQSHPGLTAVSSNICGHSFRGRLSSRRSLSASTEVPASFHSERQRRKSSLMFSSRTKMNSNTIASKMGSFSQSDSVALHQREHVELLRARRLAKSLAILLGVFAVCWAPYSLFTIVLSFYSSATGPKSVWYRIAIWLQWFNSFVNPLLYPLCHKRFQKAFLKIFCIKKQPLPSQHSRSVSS
Nature of the experiment: TGFα shedding assay, H4R F344I mutant. Type of experiment: cell-based. As for the experimental part:
as §1, §2

A further experiment has as its target H4R. The note with it: read-out: binding affinity (Ki) for H4R; cited from earlier work.
Setting [1] is: Imetit (M) -5 (log concentration), raw replicate values.

T2 sequence (Q9H3N8 whole entry T99A): as the sequence (Q9H3N8 whole entry F344I) above, with T99A, I344F counted along it
T1 sequence (Q9H3N8 whole entry): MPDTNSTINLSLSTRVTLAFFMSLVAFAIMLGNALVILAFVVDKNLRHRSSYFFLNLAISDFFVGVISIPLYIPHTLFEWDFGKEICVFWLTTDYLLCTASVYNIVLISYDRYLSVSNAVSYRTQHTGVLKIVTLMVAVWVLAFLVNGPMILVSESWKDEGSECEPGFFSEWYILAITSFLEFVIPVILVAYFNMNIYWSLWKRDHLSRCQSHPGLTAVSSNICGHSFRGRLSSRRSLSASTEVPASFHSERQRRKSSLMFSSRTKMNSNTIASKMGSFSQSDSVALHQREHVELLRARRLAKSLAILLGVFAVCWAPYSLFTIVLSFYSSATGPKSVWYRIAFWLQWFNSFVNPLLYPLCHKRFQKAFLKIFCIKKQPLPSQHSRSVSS

Take `N=C(N)SCCc1cnc[nH]1` [Imetit, imetit]: the concentration giving a half-maximal response (EC50) was 29.9 nM at human wild-type H4R (EC50 (nM), WT H4R); 30.7 nM and 23 nM at human wild-type H4R (EC50 (nM), hH4R, single experiments (3 columns), source data Figure 4e-f); 35.8 nM and 30.7 nM at human wild-type H4R (pEC50, hH4R, single experiments (3 columns), source data Figure 4e-f); 29.5 nM at human wild-type H4R (pEC50 mean ± SEM, WT H4R, three independent experiments); 76 nM at human H4R T99A mutant; more than 10000 nM at human H4R F344I mutant. The “Shedding assay response, WT” value on human wild-type H4R (setting [1]) is 14.3865 and 12.6364 and 12.8296 and 15.366 and 17.4678 and 18.6444 and 14.3694 and 15.3398 and 17.1099. The fold of change at human wild-type H4R (WT H4R, EC50 relative to WT) is recorded as 1 fold; on human H4R T99A mutant (T99A mutant, EC50 relative to WT), 2.5 fold. The maximum response (Emax) at human wild-type H4R (read-out: Emax (%) mean ± SEM) was found to be 14.9 ± 1.19%; at human H4R T99A mutant (read-out: Emax (%) mean ± SEM) it was 13.7 ± 1.67%. At human H4R T99A mutant (setting [1]), the “Shedding assay response, T99A” value was 14.3742 and 14.7391 and 15.3687 and 10.9344 and 9.709 and 12.0103 and 13.6177 and 15.7879 and 16.7579. Also, the “signaling activity at mutant, in words” value at human H4R F344I mutant (F344I (H1R mimic) mutant vs wild type) is reported as “loss of imetit activity”. Besides, on human H4R F344I mutant (setting [1]), the “Shedding assay response, F344I” value was 1.112 and 4.483 and 7.185 and 5.21 and 4.635 and 3.564 and 4.726 and 4.072 and 2.0567. Also, the Ki on H4R was 2.7 nM.

The EC50 is the concentration giving half of the maximal effect. As usually defined, the Emax is the size of the effect at its maximum, as opposed to the concentration needed. One may read the Ki as the dissociation constant of the complex between target and ligand, obtained from inhibition or displacement.
